Tested on: fatigue mice
Assay: Weight loading swimming test of fatigue mice (Example 1)
Type: in vivo, ICR male mice
Details: for restoration of energy / strength in the state of fatigue: control group glucose 1 g/kg; for swimming time of fatigue mice: intragastric, daily dose in three times, swimming continued for three days, ribose 2.5 g/kg, caffeine 75 mg/kg, ribose 1250 mg/kg+caffeine 40 mg/kg
Procedure: The mice swim with the load twice every day, respectively in the morning and afternoon. The sum of the swimming times is recorded as the swimming time for one day. The average of the swimming times for the last two days is taken as a reference, and the mice are kept swimming every day until the day in which the swimming time is below 80% of the reference, and that is considered as fatigue. […] The respective agents are given by intragastric administration with a dosage of 0.2 ml/10 g, and the daily dose is given in three times. The mice are administrated with the agents 30 minutes before swimming in the morning and afternoon, respectively, and administrated again when the furs of the mice dry after swimming in the afternoon. The mice are continued to swim for three days under the prior condition as described in Section 1.2. After swimming, the respective agents are continually administered to the mice 3 times/day for 3 days, except those to be sampled immediately, then taken as materials. […] The swimming time for each group on day 0 is set for 1, the swimming time for each group on day 1, 2 and 3 is compared to that on day 0 respectively, and thereby the change rate (%) is obtained.

SMILES	anti-fatigue effect (fatigue mice, weight loading swimming, three days)	restoration of energy / strength in the state of fatigue (fatigue mice)	swimming time of fatigue mice
Cn1c(=O)c2c(ncn2C)n(C)c1=O [caffeine]	does not produce sustained anti-fatigue effect	restore some strength in a short time but increase fatigue with the extension of time	shortened with the extension of training time
O=C[C@H](O)[C@H](O)[C@H](O)CO [ribose, D-ribose]	–	restore energy more quickly than the control group	increased with the extension of training time
